Laboratory results reported in BindingDB's records for doi:10.1111/cbdd.12330 (Institute of Experimental Botany Ascr and Palacky University, 2014).
pIC50: −log10 of the molar value.

How the values were obtained:
Test in all cases: Kinase Selectivity
[1] = biological target: Cyclin-dependent kinase 1 (Homo sapiens, UniProt P06493)
Method: (§1) Cyclin-dependent kinase selectivity was evaluated using CDK1-cyclin B, CDK2-cyclin E, CDK4-cyclin D1, CDK7-cyclin H, and CDK9-cyclin T1.

[2] = biological target: Cyclin-dependent kinase 2 (Homo sapiens, UniProt P24941)
Method: as §1

[3] = biological target: Cyclin-dependent kinase 4 (Homo sapiens, UniProt P11802)
Sequence of Cyclin-dependent kinase 4 (P11802 whole entry): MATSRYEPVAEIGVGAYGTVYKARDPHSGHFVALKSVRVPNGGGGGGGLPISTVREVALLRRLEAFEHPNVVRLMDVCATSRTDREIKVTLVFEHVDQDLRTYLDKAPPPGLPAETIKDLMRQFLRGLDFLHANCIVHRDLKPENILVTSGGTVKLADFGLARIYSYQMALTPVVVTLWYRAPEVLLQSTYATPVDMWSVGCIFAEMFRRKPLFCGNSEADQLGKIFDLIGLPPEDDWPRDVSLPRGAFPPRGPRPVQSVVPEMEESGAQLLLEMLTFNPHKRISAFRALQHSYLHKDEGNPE
Method: as §1

[4] = biological target: Cyclin-dependent kinase 7 (Homo sapiens, UniProt P50613)
Sequence of Cyclin-dependent kinase 7 (P50613 whole entry): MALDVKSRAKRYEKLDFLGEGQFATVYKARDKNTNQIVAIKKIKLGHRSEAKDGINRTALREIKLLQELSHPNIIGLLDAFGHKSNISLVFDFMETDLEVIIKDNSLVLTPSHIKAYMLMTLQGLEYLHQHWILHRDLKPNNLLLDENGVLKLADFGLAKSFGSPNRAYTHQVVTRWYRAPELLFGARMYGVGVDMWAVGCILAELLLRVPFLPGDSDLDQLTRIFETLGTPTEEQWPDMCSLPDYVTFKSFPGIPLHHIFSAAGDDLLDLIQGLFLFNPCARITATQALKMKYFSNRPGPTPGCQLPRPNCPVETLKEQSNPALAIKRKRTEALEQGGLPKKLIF
Method: as §1

[5] = biological target: Cyclin-dependent kinase 9 (Homo sapiens, UniProt P50750)
Sequence of Cyclin-dependent kinase 9 (P50750 whole entry): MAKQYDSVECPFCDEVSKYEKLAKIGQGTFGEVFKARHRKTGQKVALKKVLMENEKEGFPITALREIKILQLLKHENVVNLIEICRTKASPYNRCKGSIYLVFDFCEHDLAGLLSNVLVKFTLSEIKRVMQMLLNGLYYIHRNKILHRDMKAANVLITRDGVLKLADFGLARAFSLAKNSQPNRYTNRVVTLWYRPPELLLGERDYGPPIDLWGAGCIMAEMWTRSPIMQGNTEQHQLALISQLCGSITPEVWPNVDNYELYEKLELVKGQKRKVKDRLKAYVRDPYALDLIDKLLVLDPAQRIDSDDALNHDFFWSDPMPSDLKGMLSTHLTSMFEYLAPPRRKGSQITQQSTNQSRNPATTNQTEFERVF
Method: as §1

Sequence of Cyclin-dependent kinase 1 (P06493 whole entry): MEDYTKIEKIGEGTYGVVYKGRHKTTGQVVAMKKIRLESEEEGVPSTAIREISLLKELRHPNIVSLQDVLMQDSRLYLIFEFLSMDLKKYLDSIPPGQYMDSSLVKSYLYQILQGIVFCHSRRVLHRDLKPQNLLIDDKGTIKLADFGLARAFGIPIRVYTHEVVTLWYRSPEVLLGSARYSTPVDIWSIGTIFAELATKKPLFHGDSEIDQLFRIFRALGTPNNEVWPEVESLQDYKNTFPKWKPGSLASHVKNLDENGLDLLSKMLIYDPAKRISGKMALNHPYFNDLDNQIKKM

- pIC50 [1]: 5.88
- pIC50 [2]: 6.26
- pIC50 [3]: 6.34
- pIC50 [4]: 4.83
- pIC50 [5]: 6.55
SMILES: Nc1n[nH]c(N)c1/N=N/c1ccncc1 [AAP1742]
